In assay [1] the target is Cyclin-dependent kinase 7 (Homo sapiens, UniProt P50613). Conditions: at 10 µM.
The target in assay [2] is T1, Myosin light chain kinase family member 4 (Homo sapiens) (UniProt Q86YV6).
T1 sequence (whole entry): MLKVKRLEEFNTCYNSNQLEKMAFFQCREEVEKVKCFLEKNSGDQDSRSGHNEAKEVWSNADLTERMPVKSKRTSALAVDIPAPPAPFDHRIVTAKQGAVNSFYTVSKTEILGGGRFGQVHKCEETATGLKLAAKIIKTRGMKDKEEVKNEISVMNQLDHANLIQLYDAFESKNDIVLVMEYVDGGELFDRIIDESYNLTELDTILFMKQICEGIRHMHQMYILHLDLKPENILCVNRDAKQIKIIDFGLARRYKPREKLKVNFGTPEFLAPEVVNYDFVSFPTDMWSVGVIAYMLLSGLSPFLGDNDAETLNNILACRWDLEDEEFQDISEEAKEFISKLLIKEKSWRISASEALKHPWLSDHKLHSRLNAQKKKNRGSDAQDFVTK
Briefly: Selectivity interaction (Ambit KINOMEscan and KiNATiv profiling in Jurkat cells) EUB0000090b MYLK4. The format is cell-based. The note with it: at 1 µM.

Assay [3] concerns the target CDK4/Cyclin D3 (Homo sapiens) (UniProt P11802+P30281). Nature of the assay: (§1) Selectivity interaction (Ambit KINOMEscan and KiNATiv profiling in Jurkat cells) EUB0000090b CDK4. Conditions: at 1 µM. The format is cell-based.
Assay [4] has as its target Cyclin-dependent kinase 4/cyclin D1 (Homo sapiens) (UniProt P11802+P24385). Described as §1. The format is cell-based. Conditions: at 1 µM.
Assay [5] concerns the target Protein-tyrosine kinase 2-beta (Homo sapiens) (UniProt Q14289). Briefly: Selectivity interaction (Ambit KINOMEscan and KiNATiv profiling in Jurkat cells) EUB0000090b PTK2B. Conditions: at 1 µM. The assay is classed as cell-based.
For assay [6], the target named is Protein kinase C eta type (Homo sapiens) (UniProt P24723). The note with it: at 10 µM.
The target in assay [7] is T2, Protein kinase C zeta type (Homo sapiens) (UniProt Q05513).
T2 sequence (whole entry): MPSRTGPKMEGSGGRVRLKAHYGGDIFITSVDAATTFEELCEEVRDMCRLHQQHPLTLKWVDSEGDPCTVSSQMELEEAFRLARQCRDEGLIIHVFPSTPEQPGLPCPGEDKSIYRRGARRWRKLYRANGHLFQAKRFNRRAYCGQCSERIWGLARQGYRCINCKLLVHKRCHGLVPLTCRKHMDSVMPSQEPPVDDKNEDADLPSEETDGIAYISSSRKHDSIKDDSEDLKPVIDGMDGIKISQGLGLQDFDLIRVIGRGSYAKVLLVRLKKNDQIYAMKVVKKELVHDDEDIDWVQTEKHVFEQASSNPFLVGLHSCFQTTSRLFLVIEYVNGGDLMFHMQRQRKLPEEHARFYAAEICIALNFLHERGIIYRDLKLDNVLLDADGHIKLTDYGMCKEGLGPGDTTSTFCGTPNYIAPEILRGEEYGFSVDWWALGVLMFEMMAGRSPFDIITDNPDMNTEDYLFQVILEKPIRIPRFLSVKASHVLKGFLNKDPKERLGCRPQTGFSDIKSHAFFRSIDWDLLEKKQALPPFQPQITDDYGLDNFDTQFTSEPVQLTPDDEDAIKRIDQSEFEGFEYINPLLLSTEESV
Nature of the assay: Selectivity interaction (Millipore kinase profiler) EUB0000124b PRKCZ. The note with it: at 10 µM.

Assay [8] addresses T3, Inhibitor of nuclear factor kappa-B kinase subunit epsilon (Homo sapiens) (UniProt Q14164).
T3 sequence (whole entry): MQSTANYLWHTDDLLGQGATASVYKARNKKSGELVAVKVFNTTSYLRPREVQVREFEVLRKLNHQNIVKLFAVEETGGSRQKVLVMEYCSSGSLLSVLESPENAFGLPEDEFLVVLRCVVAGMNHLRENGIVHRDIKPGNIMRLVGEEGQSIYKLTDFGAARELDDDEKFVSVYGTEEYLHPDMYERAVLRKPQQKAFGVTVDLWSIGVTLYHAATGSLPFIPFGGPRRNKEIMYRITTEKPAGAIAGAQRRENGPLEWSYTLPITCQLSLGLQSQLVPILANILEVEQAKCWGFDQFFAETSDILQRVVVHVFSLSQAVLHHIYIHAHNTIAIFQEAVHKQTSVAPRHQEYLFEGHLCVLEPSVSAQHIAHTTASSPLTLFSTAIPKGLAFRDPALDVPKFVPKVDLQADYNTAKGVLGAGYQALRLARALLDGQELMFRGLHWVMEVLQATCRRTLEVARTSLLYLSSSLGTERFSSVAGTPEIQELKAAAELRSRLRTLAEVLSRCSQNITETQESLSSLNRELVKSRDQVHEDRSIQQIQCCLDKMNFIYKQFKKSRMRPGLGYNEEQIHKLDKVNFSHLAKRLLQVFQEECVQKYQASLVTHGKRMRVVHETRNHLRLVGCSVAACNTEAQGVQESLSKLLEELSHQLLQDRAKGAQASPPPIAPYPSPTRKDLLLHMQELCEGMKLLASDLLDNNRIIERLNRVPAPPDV
Nature of the assay: Selectivity interaction (KinomeScan (DiscoverX)) EUB0000092b IKBKE. Conditions: at 10 µM.

Assay [9] addresses Dual specificity mitogen-activated protein kinase kinase 2 (Homo sapiens) (UniProt P36507). Nature of the assay: Selectivity interaction (Kinase panel (Z-LYTE Assay)) EUB0001632a MAP2K2. Conditions: at 10 µM.
Assay [10] concerns the target Protein arginine N-methyltransferase 3 (Homo sapiens, UniProt O60678). Conditions: at 1 µM.
Assay [11] deals with Ribosomal protein S6 kinase alpha-1 (Homo sapiens, UniProt Q15418). Nature of the assay: Selectivity interaction (ActivX KiNativ screen (kinase selectivity in THP-1 cell lysates)) EUB0000639a RPS6KA1. The assay is classed as subcellular. The note with it: lysate, at 5 µM.
The target in assay [12] is Serine/threonine-protein kinase pim-1 (Homo sapiens, UniProt P11309).
Assay [13] addresses STE20/SPS1-related proline-alanine-rich protein kinase (Homo sapiens) (UniProt Q9UEW8). Nature of the assay: Selectivity interaction (KinomeScan (DiscoverX)) EUB0000618a STK39. The note with it: at 10 µM.
For assay [14], the target named is Casein kinase I isoform gamma-2 (Homo sapiens) (UniProt P78368). Nature of the assay: Selectivity interaction (KinomeScan (DiscoverX)) EUB0000618a CSNK1G2. The note with it: at 10 µM.

This is an account of results in ChEMBL document CHEMBL5465560, “Selectivity Literature for EUbOPEN Chemogenomic Library” (2024).

Molecules are shown by their SMILES.

Chain of Protein-tyrosine kinase 2-beta (Homo sapiens) (Q14289 whole entry, looked up): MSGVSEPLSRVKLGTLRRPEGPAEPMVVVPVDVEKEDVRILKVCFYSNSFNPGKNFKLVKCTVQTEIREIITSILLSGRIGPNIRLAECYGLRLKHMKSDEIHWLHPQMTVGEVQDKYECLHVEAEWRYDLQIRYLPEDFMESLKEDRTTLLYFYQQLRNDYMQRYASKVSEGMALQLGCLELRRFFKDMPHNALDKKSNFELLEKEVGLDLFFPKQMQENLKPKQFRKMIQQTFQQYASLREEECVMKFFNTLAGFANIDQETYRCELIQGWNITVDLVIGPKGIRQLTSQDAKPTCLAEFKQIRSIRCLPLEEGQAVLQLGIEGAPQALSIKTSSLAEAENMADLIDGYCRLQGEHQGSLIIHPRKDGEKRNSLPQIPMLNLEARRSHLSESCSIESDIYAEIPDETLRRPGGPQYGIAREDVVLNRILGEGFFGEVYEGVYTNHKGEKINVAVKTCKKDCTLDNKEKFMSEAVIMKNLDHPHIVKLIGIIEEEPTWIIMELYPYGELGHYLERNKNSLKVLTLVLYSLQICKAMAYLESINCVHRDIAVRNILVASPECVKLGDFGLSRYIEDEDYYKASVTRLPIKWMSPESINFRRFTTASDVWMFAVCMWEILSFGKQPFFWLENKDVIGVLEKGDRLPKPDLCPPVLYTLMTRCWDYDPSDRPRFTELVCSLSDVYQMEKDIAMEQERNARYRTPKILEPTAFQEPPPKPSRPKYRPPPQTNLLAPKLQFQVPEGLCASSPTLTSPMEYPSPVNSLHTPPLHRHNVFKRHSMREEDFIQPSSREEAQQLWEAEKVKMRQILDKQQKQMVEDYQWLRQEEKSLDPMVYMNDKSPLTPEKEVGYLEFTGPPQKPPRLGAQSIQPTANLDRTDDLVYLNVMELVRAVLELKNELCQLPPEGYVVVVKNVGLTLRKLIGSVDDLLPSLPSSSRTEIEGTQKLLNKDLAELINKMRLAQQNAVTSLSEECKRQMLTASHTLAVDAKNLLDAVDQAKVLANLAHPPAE
Chain of Casein kinase I isoform gamma-2 (Homo sapiens) (P78368 whole entry, looked up, canonical isoform): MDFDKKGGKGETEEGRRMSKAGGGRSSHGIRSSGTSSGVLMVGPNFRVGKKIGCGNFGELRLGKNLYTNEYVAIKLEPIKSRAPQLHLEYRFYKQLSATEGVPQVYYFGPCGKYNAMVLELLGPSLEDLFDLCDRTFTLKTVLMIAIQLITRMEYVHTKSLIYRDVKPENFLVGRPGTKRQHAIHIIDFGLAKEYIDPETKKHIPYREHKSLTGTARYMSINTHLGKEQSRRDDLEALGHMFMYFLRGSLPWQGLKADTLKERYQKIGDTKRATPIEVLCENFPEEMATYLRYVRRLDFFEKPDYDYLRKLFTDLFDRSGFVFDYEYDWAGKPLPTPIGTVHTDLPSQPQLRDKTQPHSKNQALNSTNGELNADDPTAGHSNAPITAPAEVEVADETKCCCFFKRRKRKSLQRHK
Chain of Cyclin-dependent kinase 7 (P50613 whole entry): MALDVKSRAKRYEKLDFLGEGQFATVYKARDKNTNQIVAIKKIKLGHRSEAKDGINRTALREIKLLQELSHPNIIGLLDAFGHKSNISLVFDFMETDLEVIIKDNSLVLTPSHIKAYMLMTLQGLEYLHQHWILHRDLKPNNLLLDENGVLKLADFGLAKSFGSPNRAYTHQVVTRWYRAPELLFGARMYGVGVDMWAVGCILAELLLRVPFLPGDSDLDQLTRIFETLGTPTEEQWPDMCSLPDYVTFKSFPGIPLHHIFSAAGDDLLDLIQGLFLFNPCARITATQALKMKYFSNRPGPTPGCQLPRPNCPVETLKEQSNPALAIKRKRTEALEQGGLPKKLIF
Chain of Protein arginine N-methyltransferase 3 (O60678 2-531 limits assumed): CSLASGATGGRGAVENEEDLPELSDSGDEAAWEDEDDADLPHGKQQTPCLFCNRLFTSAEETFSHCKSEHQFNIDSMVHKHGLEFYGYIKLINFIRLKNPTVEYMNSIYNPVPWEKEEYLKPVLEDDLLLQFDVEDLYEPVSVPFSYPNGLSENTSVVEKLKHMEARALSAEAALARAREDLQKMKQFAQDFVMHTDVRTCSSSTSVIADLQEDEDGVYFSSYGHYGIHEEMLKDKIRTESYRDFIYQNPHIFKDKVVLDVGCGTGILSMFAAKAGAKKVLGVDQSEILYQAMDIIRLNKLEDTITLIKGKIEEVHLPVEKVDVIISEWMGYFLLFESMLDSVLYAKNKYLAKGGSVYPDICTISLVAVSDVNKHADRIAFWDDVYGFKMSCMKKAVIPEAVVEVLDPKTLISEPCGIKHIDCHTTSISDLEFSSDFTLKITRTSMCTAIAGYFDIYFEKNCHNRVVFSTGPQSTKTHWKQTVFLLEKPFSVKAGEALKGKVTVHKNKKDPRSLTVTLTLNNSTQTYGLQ
Chain of Dual specificity mitogen-activated protein kinase kinase 2 (Homo sapiens) (P36507 whole entry): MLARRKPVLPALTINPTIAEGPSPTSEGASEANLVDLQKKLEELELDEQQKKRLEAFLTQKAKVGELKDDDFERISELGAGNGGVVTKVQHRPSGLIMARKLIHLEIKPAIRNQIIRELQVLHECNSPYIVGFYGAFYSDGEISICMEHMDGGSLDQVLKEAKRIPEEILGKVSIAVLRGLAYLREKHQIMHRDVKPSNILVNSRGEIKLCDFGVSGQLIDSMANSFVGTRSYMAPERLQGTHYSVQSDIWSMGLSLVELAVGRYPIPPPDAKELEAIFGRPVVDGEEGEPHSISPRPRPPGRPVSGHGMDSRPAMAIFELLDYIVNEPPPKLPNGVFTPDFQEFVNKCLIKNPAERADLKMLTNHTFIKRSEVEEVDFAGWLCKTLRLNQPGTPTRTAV
Chain of Protein kinase C eta type (Homo sapiens) (P24723 whole entry): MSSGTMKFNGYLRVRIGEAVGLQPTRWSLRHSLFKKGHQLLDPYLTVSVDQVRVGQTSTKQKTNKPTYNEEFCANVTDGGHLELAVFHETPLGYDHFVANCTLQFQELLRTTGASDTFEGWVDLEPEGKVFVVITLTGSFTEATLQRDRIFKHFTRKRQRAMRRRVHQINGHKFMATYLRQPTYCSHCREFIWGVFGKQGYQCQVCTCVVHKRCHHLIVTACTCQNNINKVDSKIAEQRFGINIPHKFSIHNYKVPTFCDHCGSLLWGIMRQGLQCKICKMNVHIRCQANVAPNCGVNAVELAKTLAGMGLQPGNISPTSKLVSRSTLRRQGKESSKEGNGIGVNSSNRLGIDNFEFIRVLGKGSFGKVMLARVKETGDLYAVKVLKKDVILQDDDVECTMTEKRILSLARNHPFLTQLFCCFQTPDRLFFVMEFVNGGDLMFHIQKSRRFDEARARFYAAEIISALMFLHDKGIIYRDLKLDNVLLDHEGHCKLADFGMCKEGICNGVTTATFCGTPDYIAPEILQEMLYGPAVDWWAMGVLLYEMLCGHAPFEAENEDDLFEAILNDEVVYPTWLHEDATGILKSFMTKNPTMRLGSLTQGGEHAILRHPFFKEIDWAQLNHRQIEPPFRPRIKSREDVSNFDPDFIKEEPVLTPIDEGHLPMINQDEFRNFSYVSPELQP
Chain of Serine/threonine-protein kinase pim-1 (P11309 whole entry): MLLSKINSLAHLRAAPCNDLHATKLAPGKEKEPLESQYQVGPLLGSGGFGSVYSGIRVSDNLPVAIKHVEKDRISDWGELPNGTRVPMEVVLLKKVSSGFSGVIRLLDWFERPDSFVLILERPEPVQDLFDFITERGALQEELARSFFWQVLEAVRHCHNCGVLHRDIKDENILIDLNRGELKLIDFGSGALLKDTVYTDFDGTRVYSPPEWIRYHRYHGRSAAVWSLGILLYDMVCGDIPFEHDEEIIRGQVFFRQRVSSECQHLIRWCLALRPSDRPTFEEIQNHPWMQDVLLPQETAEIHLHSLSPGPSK
Chain of Ribosomal protein S6 kinase alpha-1 (Q15418 whole entry): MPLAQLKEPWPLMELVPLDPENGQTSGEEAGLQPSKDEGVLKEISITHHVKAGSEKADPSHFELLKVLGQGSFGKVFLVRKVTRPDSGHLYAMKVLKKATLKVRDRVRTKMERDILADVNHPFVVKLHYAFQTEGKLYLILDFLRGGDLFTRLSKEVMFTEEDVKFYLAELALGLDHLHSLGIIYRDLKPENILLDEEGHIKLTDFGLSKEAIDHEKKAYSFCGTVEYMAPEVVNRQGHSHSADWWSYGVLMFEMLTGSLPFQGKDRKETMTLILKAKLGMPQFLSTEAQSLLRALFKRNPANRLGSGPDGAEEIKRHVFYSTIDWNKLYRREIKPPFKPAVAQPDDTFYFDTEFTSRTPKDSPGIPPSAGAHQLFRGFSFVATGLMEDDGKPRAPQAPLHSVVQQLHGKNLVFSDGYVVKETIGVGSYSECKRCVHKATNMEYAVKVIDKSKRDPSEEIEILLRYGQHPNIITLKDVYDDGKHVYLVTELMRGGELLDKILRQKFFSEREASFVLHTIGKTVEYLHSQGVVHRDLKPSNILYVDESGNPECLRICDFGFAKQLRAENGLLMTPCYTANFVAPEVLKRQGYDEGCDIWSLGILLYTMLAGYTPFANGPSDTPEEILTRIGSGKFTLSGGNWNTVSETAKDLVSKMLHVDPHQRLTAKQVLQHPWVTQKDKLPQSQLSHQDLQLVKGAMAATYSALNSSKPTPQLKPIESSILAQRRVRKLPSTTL

In assay [1], `Cc1cc([C@@H](C)Nc2ccccc2C(=O)O)c2nc(N3CCOCC3)cc(=O)n2c1` [AZD-6482] yielded a % of control of 97%.
Take `CN(C)C/C=C/C(=O)Nc1ccc(C(=O)N2CCCC(Nc3ncc(Cl)c(-c4c[nH]c5ccccc45)n3)C2)cc1` (centres undefined): the % of control in assay [2] was determined as 55%; in [3] it was 94%; in [4] it was 59%; in [5] it was 93%.
Regarding `CCN(CC)CCCCNc1ncc2cc(-c3cc(OC)cc(OC)c3)c(NC(=O)NC(C)(C)C)nc2n1`, the % of control in assay [6] was 100%.
In assay [7], `CC(=O)Nc1cccc(-n2c(=O)n(C3CC3)c(=O)c3c(Nc4ccc(I)cc4F)n(C)c(=O)c(C)c32)c1` had a % of control of 102%.
As to `CCC(=O)N1CCN(c2ccc(-n3c(=O)ccc4cnc5ccc(-c6cnc7ccccc7c6)cc5c43)cc2C(F)(F)F)CC1`, in assay [8], the % of control was 87%.
Regarding `Cn1cc(-n2cnc3c(NCc4nc5cc(Cl)c(Cl)cc5[nH]4)nc(N4CCOCC4)nc32)cn1`, the % of control in assay [9] stood at 3.34%.
Regarding `CNCCN1CCC(c2cc(CN(C)C(=O)c3cccc(Oc4ccccc4)c3)ccn2)CC1`, in assay [10], the % activity is more than 90%.
`CC[C@@H]1[C@H](F)C(=O)N[C@@H]1COc1nccc2cc(C(N)=O)c(OC)cc12` [ZIMLOVISERTIB] yielded a % of inhibition in assay [11] of 0.2%.
Regarding `CCc1cccc(CC)c1NC(=O)c1nn(C)c2c1CCc1cnc(Nc3ccc(C(=O)NC4CCN(C)CC4)cc3OC(F)(F)F)nc1-2`, in assay [12], the half-inhibitory concentration (IC50) was more than 10 µM.
Turning to `O[C@H]1CC[C@H](Nc2ncc3nc(Nc4c(F)cc(F)cc4F)n([C@H]4CCOC4)c3n2)CC1`, the % of control in assay [13] and in assay [14] was 100% throughout.

The IC50 is the concentration that inhibits the measured activity by half. Higher therefore signals lower potency.
